Test results: patent US20250082760A1 (priority 2020, published 2025)
Counter-ions that a name gives are not always drawn.

What was measured:
[1] = system: reserpine-treated mice; experiment: mouse sugar water preference test (reserpine depression model); assay type: in vivo, Kunming mice
Description: Experimental drug, clomipramine (CLI), sigma company, batch number: C7291, 10 mg/ml (10% DMSO); reserpine (Res), sigma company, batch number: 83580, 1 mg/ml (10% DMSO);
SPF adult male Kunming mice, 20-30 g, Laboratory Animal Center of Lanzhou University, animal certificate number: SCXK (Gan) 2018-0002, reared in separate cages, temperature 22±1° C., humidity […], 12 h/12 h light and dark cycle controlled by dynamic light (light-on time 8:000 h, light-off time 20:000 h, light intensity≈100 lux), animals could eat and move freely.
(§1) Statistical analysis, the experimental data were analyzed by SPSS 19.0 statistical software, and all data were expressed as Means±SEM.

[2] = physchem
[3] = system: righting reflex in mice; experiment: mouse righting reflex test (sedative and hypnotic effects); assay type: in vivo, Kunming mice
Description: Experimental animals, SPF Kunming mice, male, 20-30 g, Laboratory Animal Center of Lanzhou University (certificate number: SCXK (Gan) 2018-0002), reared in separate cages, temperature, 22±1° C., humidity, 50%, automatic in the light-controlled 12 h/12 h light-dark cycle (light-on time 8:00 h, light-off time 20:00 h, light intensity ≈100 lux) environment, free food and activities, adapted to the experimental environment for 5 days.
as §1

[4] = intraperitoneal, compound 5 56 mg/kg, Pro 25 mg/kg, A1P1 24 and 25 mg/kg, Dia 5 mg/kg, n = 7, listed as compound 5, hydrochloride

Structure (SMILES): CC(C)c1cccc(C(C)C)c1OC(=O)CC1(CN(C)C)CCCCC1 [Compound 5, 2,6-diisopropylphenyl 2-(1-((dimethylamino)methyl)cyclohexyl)acetate hydrochloride]
- antidepressant effect (sugar water preference test) ([1]; Res 6 mg/kg + compound 5 56 mg/kg i.p.): significant antidepressant effect
- change of preference for sugar water compared with the Res+DMSO group ([1]; after Res 6 mg/kg i.p., CLI 50, Pro 25, A1P1 24 and 25, compound 5 56 mg/kg i.p.): rose significantly
- Sugar water preference (sugar water drinking amount/total drinking amount) ([1]; after Res 6 mg/kg i.p., CLI 50, Pro 25, A1P1 24 and 25, compound 5 56 mg/kg i.p., Means±SEM, Res + DMSO 0.642 ± 0.036, DMSO 0.901 ± 0.026): 0.894 ± 0.028
- logP [2]: 1.37
- sedative effect ([3]; intraperitoneal 56 mg/kg, versus Pro and A1P1): better sedative effect
- Observation of activity and other phenomena ([3]; intraperitoneal, compound 5 56 mg/kg, Pro 25 mg/kg, A1P1 24 and 25 mg/kg, Dia 5 mg/kg, n = 7, hydrochloride): Reduced activity
- Disappearance time (latency of disappearance of the righting reflex) [3, 4]: did not disappear
- Observation of activity and other phenomena [3, 4]: significantly reduced
